Reference: patent publication US20240382557A1, “INHIBITION OF TUMOR NECROSIS FACTOR, PRO-INFLAMMATORY CYTOKINES AND OTHER INFLAMMATORY RESPONSE MEDIATORS” (Allegro Pharmaceuticals, LLC, priority 2021, published 2024)
Where a SMILES comes first, the peptide text is derived from it. [ ]: non-standard residue; d: D form. Cya = N[C@@H](CS(=O)(=O)O)C(=O)O

Test system: Primary human immune cells (PBMC)
Experiment: RNA-seq gene expression in primary human immune cells after risuteganib
Type: cell-based
Conditions: 100 μM, 8 hours
Procedure: Purpose: In this study, RNA-seq was used to unbiasedly identify the genes regulated by risuteganib exposure in primary human immune cells. Analysis of the specific subset of genes regulated by risuteganib enables identification of biological processes and pathways modulated by the oligopeptide Methods: Primary human immune cells (PBMC) were obtained from a single human donor. The cells were separated into two groups: vehicle or 100 μM risuteganib treatment for 8 hours. After exposure, cells were collected and their total RNA isolated for RNA-seq. The generated reads were then aligned to human reference genome/transcriptome and gene expression quantified for differential expression analysis and fold change calculation. The list of regulated genes was then used to identify biological processes and pathways that are regulated after Risuteganib exposure compared to vehicle control.

## C[C@@H](O)[C@H](NC(=O)[C@H](CS(=O)(=O)O)NC(=O)CNC(=O)[C@H](CCCNC(=N)N)NC(=O)CN)C(=O)N1CCC[C@H]1C(=O)O [Risuteganib, Glycyl-L-arginylglycyl-3-sulfo-L-alanyl-L-threonyl-L-proline] (H-GRG[Cya]TP-OH)
  ADAM8 Mean Expression Rate (Normalized as Fraction Control): 0.9708
  ADGRB1 Mean Expression Rate (Normalized as Fraction Control): 0.8444
  ADGRE2 Mean Expression Rate (Normalized as Fraction Control): 0.923
  ADGRG3 Mean Expression Rate (Normalized as Fraction Control): 0.8381
  AGER Mean Expression Rate (Normalized as Fraction Control): 0.9136
  AKIRIN2 Mean Expression Rate (Normalized as Fraction Control): 0.9697
  ALDH3B1 Mean Expression Rate (Normalized as Fraction Control): 0.8912
  ANPEP Mean Expression Rate (Normalized as Fraction Control): 0.9082
  ARRB2 Mean Expression Rate (Normalized as Fraction Control): 0.9014
  ARSA Mean Expression Rate (Normalized as Fraction Control): 0.9239
  ATP6V0A1 Mean Expression Rate (Normalized as Fraction Control): 0.9432
  BAG6 Mean Expression Rate (Normalized as Fraction Control): 0.9522
  BCL3 Mean Expression Rate (Normalized as Fraction Control): 0.8918
  BRI3 Mean Expression Rate (Normalized as Fraction Control): 0.9397
  CCL2 Mean Expression Rate (Normalized as Fraction Control): 0.9143
  CCL3L1 Mean Expression Rate (Normalized as Fraction Control): 0.8739
  CCL4L2 Mean Expression Rate (Normalized as Fraction Control): 0.9389
  CCL4 Mean Expression Rate (Normalized as Fraction Control): 0.9605
  CCL22 Mean Expression Rate (Normalized as Fraction Control): 0.9197
  CD14 Mean Expression Rate (Normalized as Fraction Control): 0.8899
  CD63 Mean Expression Rate (Normalized as Fraction Control): 0.9487
  CD300A Mean Expression Rate (Normalized as Fraction Control): 0.9137
  CDC37 Mean Expression Rate (Normalized as Fraction Control): 0.935
  CEBPB Mean Expression Rate (Normalized as Fraction Control): 0.8752
  CKAP4 Mean Expression Rate (Normalized as Fraction Control): 0.9133
  CLCF1 Mean Expression Rate (Normalized as Fraction Control): 0.8975
  CSF1 Mean Expression Rate (Normalized as Fraction Control): 0.8841
  CSF3 Mean Expression Rate (Normalized as Fraction Control): 0.8615
  CSTB Mean Expression Rate (Normalized as Fraction Control): 0.9649
  CTSA Mean Expression Rate (Normalized as Fraction Control): 0.941
  CTSD Mean Expression Rate (Normalized as Fraction Control): 0.9173
  CXCL1 Mean Expression Rate (Normalized as Fraction Control): 0.9216
  CXCL2 Mean Expression Rate (Normalized as Fraction Control): 0.8524
  CXCL16 Mean Expression Rate (Normalized as Fraction Control): 0.9326
  CYB5R3 Mean Expression Rate (Normalized as Fraction Control): 0.9564
  CYBA Mean Expression Rate (Normalized as Fraction Control): 0.8869
  CYP27B1 Mean Expression Rate (Normalized as Fraction Control): 0.8623
  DGAT1 Mean Expression Rate (Normalized as Fraction Control): 0.9308
  DNAJC5 Mean Expression Rate (Normalized as Fraction Control): 0.969
  DOK3 Mean Expression Rate (Normalized as Fraction Control): 0.8929
  DYSF Mean Expression Rate (Normalized as Fraction Control): 0.8587
  ERCC1 Mean Expression Rate (Normalized as Fraction Control): 0.8784
  FABP5 Mean Expression Rate (Normalized as Fraction Control): 0.8713
  FCER1G Mean Expression Rate (Normalized as Fraction Control): 0.9289
  FCER2 Mean Expression Rate (Normalized as Fraction Control): 0.7686
  FCGRT Mean Expression Rate (Normalized as Fraction Control): 0.8558
  FGR Mean Expression Rate (Normalized as Fraction Control): 0.9222
  FOS Mean Expression Rate (Normalized as Fraction Control): 0.822
  GAA Mean Expression Rate (Normalized as Fraction Control): 0.9121
  GALNS Mean Expression Rate (Normalized as Fraction Control): 0.9356
  GLA Mean Expression Rate (Normalized as Fraction Control): 0.9639
  GPR84 Mean Expression Rate (Normalized as Fraction Control): 0.9231
  GPX1 Mean Expression Rate (Normalized as Fraction Control): 0.9254
  GRN Mean Expression Rate (Normalized as Fraction Control): 0.9221
  HEXIM1 Mean Expression Rate (Normalized as Fraction Control): 0.9653
  HIST2H2BE Mean Expression Rate (Normalized as Fraction Control): 0.8527
  HLA-DPB1 Mean Expression Rate (Normalized as Fraction Control): 0.9295
  HLA-DQB1 Mean Expression Rate (Normalized as Fraction Control): 0.9554
  HLX Mean Expression Rate (Normalized as Fraction Control): 0.9084
  HRAS Mean Expression Rate (Normalized as Fraction Control): 0.9238
  IFI30 Mean Expression Rate (Normalized as Fraction Control): 0.8318
  IGHD Mean Expression Rate (Normalized as Fraction Control): 0.8731
  IGLC2 Mean Expression Rate (Normalized as Fraction Control): 0.8467
  IGLV2-23 Mean Expression Rate (Normalized as Fraction Control): 0.4503
  IL1RN Mean Expression Rate (Normalized as Fraction Control): 0.8469
  IL4R Mean Expression Rate (Normalized as Fraction Control): 0.9748
  IL6 Mean Expression Rate (Normalized as Fraction Control): 0.9281
  IRF5 Mean Expression Rate (Normalized as Fraction Control): 0.9293
  ITGAL Mean Expression Rate (Normalized as Fraction Control): 0.9842
  ITGAM Mean Expression Rate (Normalized as Fraction Control): 0.9473
  ITGAX Mean Expression Rate (Normalized as Fraction Control): 0.8865
  KCNAB2 Mean Expression Rate (Normalized as Fraction Control): 0.9588
  KCNN4 Mean Expression Rate (Normalized as Fraction Control): 0.9127
  LFNG Mean Expression Rate (Normalized as Fraction Control): 0.9734
  LIF Mean Expression Rate (Normalized as Fraction Control): 0.7939
  LILRB3 Mean Expression Rate (Normalized as Fraction Control): 0.9396
  LILRB4 Mean Expression Rate (Normalized as Fraction Control): 0.897
  LIMK1 Mean Expression Rate (Normalized as Fraction Control): 0.9285
  LRP1 Mean Expression Rate (Normalized as Fraction Control): 0.9405
  LTB4R Mean Expression Rate (Normalized as Fraction Control): 0.834
  LTBR Mean Expression Rate (Normalized as Fraction Control): 0.9644
  MAN2B1 Mean Expression Rate (Normalized as Fraction Control): 0.9706
  MAP2K7 Mean Expression Rate (Normalized as Fraction Control): 0.9421
  MCEMP1 Mean Expression Rate (Normalized as Fraction Control): 0.86
  MCOLN1 Mean Expression Rate (Normalized as Fraction Control): 0.9403
  MMP9 Mean Expression Rate (Normalized as Fraction Control): 0.9125
  MMP25 Mean Expression Rate (Normalized as Fraction Control): 0.8959
  MT2A Mean Expression Rate (Normalized as Fraction Control): 0.9216
  MUCL1 Mean Expression Rate (Normalized as Fraction Control): 0.6866
  MYO1G Mean Expression Rate (Normalized as Fraction Control): 0.9214
  NBEAL2 Mean Expression Rate (Normalized as Fraction Control): 0.9432
  NCF4 Mean Expression Rate (Normalized as Fraction Control): 0.9433
  NECTIN2 Mean Expression Rate (Normalized as Fraction Control): 0.9479
  NFAM1 Mean Expression Rate (Normalized as Fraction Control): 0.8948
  NFKB2 Mean Expression Rate (Normalized as Fraction Control): 0.9675
  NFKBID Mean Expression Rate (Normalized as Fraction Control): 0.9203
  NPLOC4 Mean Expression Rate (Normalized as Fraction Control): 0.9748
  NRROS Mean Expression Rate (Normalized as Fraction Control): 0.9202
  ORAI1 Mean Expression Rate (Normalized as Fraction Control): 0.9714
  OSCAR Mean Expression Rate (Normalized as Fraction Control): 0.772
  OSM Mean Expression Rate (Normalized as Fraction Control): 0.8306
  OTUB1 Mean Expression Rate (Normalized as Fraction Control): 0.9445
  PDXK Mean Expression Rate (Normalized as Fraction Control): 0.973
  PFKL Mean Expression Rate (Normalized as Fraction Control): 0.9804
  PI3 Mean Expression Rate (Normalized as Fraction Control): 0.9158
  PILRA Mean Expression Rate (Normalized as Fraction Control): 0.9457
  PLAUR Mean Expression Rate (Normalized as Fraction Control): 0.9104
  PLD2 Mean Expression Rate (Normalized as Fraction Control): 0.9215
  PRAM1 Mean Expression Rate (Normalized as Fraction Control): 0.8661
  PRKCD Mean Expression Rate (Normalized as Fraction Control): 0.9631
  PSTPIP1 Mean Expression Rate (Normalized as Fraction Control): 0.9409
  QSOX1 Mean Expression Rate (Normalized as Fraction Control): 0.9355
  RAB5C Mean Expression Rate (Normalized as Fraction Control): 0.9246
  RAC2 Mean Expression Rate (Normalized as Fraction Control): 0.9763
  RAPGEF1 Mean Expression Rate (Normalized as Fraction Control): 0.9459
  RARA Mean Expression Rate (Normalized as Fraction Control): 0.8926
  RELB Mean Expression Rate (Normalized as Fraction Control): 0.9647
  RHOG Mean Expression Rate (Normalized as Fraction Control): 0.9592
  RNF19B Mean Expression Rate (Normalized as Fraction Control): 0.9469
  S100A11 Mean Expression Rate (Normalized as Fraction Control): 0.9492
  SH2B2 Mean Expression Rate (Normalized as Fraction Control): 0.879
  SIRPA Mean Expression Rate (Normalized as Fraction Control): 0.9657
  SLC11A1 Mean Expression Rate (Normalized as Fraction Control): 0.8842
  SLC26A6 Mean Expression Rate (Normalized as Fraction Control): 0.9452
  SOCS1 Mean Expression Rate (Normalized as Fraction Control): 0.9289
  SP2 Mean Expression Rate (Normalized as Fraction Control): 0.9613
  SRC Mean Expression Rate (Normalized as Fraction Control): 0.9483
  STK10 Mean Expression Rate (Normalized as Fraction Control): 0.9606
  STX4 Mean Expression Rate (Normalized as Fraction Control): 0.949
  STXBP2 Mean Expression Rate (Normalized as Fraction Control): 0.8885
  SUPT6H Mean Expression Rate (Normalized as Fraction Control): 0.9568
  TCIRG1 Mean Expression Rate (Normalized as Fraction Control): 0.892
  TFE3 Mean Expression Rate (Normalized as Fraction Control): 0.9731
  TICAM1 Mean Expression Rate (Normalized as Fraction Control): 0.9382
  TNF Mean Expression Rate (Normalized as Fraction Control): 0.9281
  TNFRSF1B Mean Expression Rate (Normalized as Fraction Control): 0.9604
  TNFRSF4 Mean Expression Rate (Normalized as Fraction Control): 0.9427
  TNFRSF13B Mean Expression Rate (Normalized as Fraction Control): 0.8508
  TNFRSF14 Mean Expression Rate (Normalized as Fraction Control): 0.9239
  TNFSF9 Mean Expression Rate (Normalized as Fraction Control): 0.8416
  TOM1 Mean Expression Rate (Normalized as Fraction Control): 0.9211
  TRAF3IP2 Mean Expression Rate (Normalized as Fraction Control): 0.9472
  TREM1 Mean Expression Rate (Normalized as Fraction Control): 0.9084
  TRPM2 Mean Expression Rate (Normalized as Fraction Control): 0.9391
  TYK2 Mean Expression Rate (Normalized as Fraction Control): 0.9711
  TYROBP Mean Expression Rate (Normalized as Fraction Control): 0.9329
  UNC13D Mean Expression Rate (Normalized as Fraction Control): 0.9577
  ZC3H12A Mean Expression Rate (Normalized as Fraction Control): 0.9757
  ZP3 Mean Expression Rate (Normalized as Fraction Control): 0.8491
  ZYX Mean Expression Rate (Normalized as Fraction Control): 0.9139
Adjusted p-value=6.22E-3
  genes associated with TNF-a pro-inflammatory pathway (pathway analysis): down-regulated
Gene printed as NA
  NA Mean Expression Rate (Normalized as Fraction Control): 0.9077
